Like-named read-outs stand apart in the source and are kept apart here.
Tests used:
injection site [1] = settings: cited from earlier work
injection site [2] = test: Local tolerability / irritation at the injection site, general statements; settings: applicant's statement
injection site [3] = settings: in vivo
[4] = statement on known products, solvents or bases

In the case of CC(O)CO (centres unmarked) [1,2-propanediol], the “local tolerability / irritation” value (injection site [1]; [4]) is listed as “highly irritant and have haemolytic effects”.

For N=C(N)NCCC[C@H](N)C(=O)O [L-arginine], the “local tolerability / irritation” value (injection site [2]) was “excellent local tolerability”.

For NCCCC[C@H](N)C(=O)O [L-lysine], the “local tolerability / irritation” value (injection site [2]) was “excellent local tolerability”.

In the case of NCCC[C@H](N)C(=O)O [L-ornithine], the “local tolerability / irritation” value (injection site [2]) is reported as “excellent local tolerability”.

In the case of [O]=[Mg] [MgO, Magnesium oxide], the “local tolerability / irritation” value (injection site [3]) is reported as “irritant for tissue”.

For OCCNCCO [diethanolamine], the “local tolerability / irritation” value (injection site [1]; in vivo) is given as “very irritant”.

In the case of NCCO [monoethanolamine], the “local tolerability / irritation” value (injection site [1]; [4]) is listed as “very irritant”.

In the case of polyethylene glycol, the “local tolerability / irritation” value (injection site [1]; in vivo) is given as “highly irritant and have haemolytic effects”.

From US5753636A, “Injection solution for intramuscular and subcutaneous administration to animals” (priority 1993, dated 1998)
